Patent publication US20250109127A1, “METHODS OF USE OF PHENOXYPROPYLAMINE COMPOUNDS TO TREAT DEPRESSION” (Minerva Neurosciences, Inc., priority 2013, published 2025)
Several values for one entry are separate records, joined by “and”; a condition that tells them apart may be missing. Equal values may be shown once. Where a name gives a salt, the structure may show the parent alone.

Test system: dopamine release in the rat prefrontal cortex
Assay: Microdialysis: dopamine release in prefrontal cortex after I.P. administration
Format: in vivo
Settings: for DOPAMINE (% of respective basal), individual animal: 0.1 mg/kg I.P., c2-c9 = R#13,14,20,19,25,26,31,32; for DOPAMINE (% of respective basal), individual animal / Dopamine release, individual animals: hydrochloride; for Dopamine release, MEAN / Dopamine release, individual animals: 0.3 mg/kg I.P.; for Dopamine release, MEAN: n = 8; for Dopamine release, individual animals: one column per animal R#11,12,18,23,29,30,17,24
Experimental: The aim of the study was to evaluate, using microdialysis, the effects of an intraperitoneal (I.P.) administration in rats of three different doses of SON-117 on dopamine and its metabolites, serotonin and its metabolite (5-HIAA), and norepinephrine levels in prefrontal cortex.
Thirty-two adult male Wistar rats were used for the whole study (4 groups of eight animals planned for the study, Table 1).
Surgery was performed on rats weighing about 300 g at the beginning of the experiments. Rats were anaesthetized with Ketamine (50 mg/kg) & Xylazine (15 mg/kg) by intramuscular administration. The animals were placed in a stereotaxic apparatus in the flat-skull position at a constant setting of −3.3 mm between ear bars and the incisor bar. The animals were treated with a local anesthesic (xylocaine 1%, Astra Zeneca) and an analgesic (Temgesic, from Schering Plough, 0.05 mg/kg, s.c.). A rostrocaudal midline incision was made with a lancet to expose the dorsal skull surface. The “stereotaxic zero” was defined by the Bregma in accordance with Paxinos and Watson's atlas (1986). A hole was drilled in the skull with a drill and the meninges were pierced with a sterile needle to implant a CMA12 guide cannula which later received the dialysis probe.
Coordinates used for implanting guide cannula in prefrontal cortex from Bregma were anteroposterior 3.7 mm, mediolateral 0.8 mm, and dorsoventral −2 mm (top of the probe was at −5 mm). The guide cannula was fixed to the skull with two stainless steel screws (1.88 mm outside diameter) anchored. An application of dental cement was added. A plastic collar allowed each animal to be tethered to a Swivel assembly of the CMA 120 awake animal system. Following surgery, rats were kept in individual cages and allowed to recover for a minimum of 3-5 days before the experimentation. The rats were handled and put in plastic bowl for 10 min at least every day to habituate the animals to their new environment for the dialysis. An I.P. administration with saline was also performed every day.
Dialysis probes (CMA12/3 mm, membrane, 20 kD cut-off, Carnegie Medicine, Stockholm, Sweden), were carefully washed before inserting into the guide cannula. The wash was performed with the artificial cerebrospinal fluid (aCSF) medium (NaCl 147 mM, KCl 2.7 mM, CaCl2 1.2 mM, MgCl2 0.85 mM) at room temperature. The dialysis system was then equilibrated at 20° C. at a perfusion rate of 1 μl/min with a Carnegie pump (CMA100). All catheters (FEP tubing, internal volume of 1.2 μl/10 cm, and tubing adaptors) used for microdialysis were treated in the same conditions.
The probes duly prepared were inserted into the guide cannula and the CMA120 Swivel assembly secured to the animal using a plastic collar. Flow through the dialysis probe with aCSF was maintained at a rate of 1 μl/min during the whole experimentation. The first four fractions (corresponding to 2 hours) were discarded to avoid the effects of parenchymal disturbance and to ensure that an approximate steady-state level was reached. Fractions were then collected over a period of 8.5 h during which time the animals remained quiet. The dialysates were automatically collected with an autosampler (microfraction collector CMA 140, Carnegie Medicin) and stored at −80° C. until analysis. […] Perfusion was then maintained for 7 hours with aCSF. The dialysates (30 μl) were collected into 300 μl vials, transferred into dry ice and then kept frozen (−80° C.) until analysis. Frozen samples were shipped to a partner for analysis. At the end of the microdialysis study, a PBS with colored ink was perfused through the probe in order to visualize the dialyzed area.
Catecholamine assay: Concentrations of dopamine, DOPAC, HVA, 5-HIAA, 5-HT, and norepinephrin were determined for each sample by HPLC coupled with electrochemical detection.

Cc1nnc(-c2cc3c(OC[C@@H](O)CN4CCC(c5ccc(Cl)c(Cl)c5)CC4)cccc3o2)o1 [SON-117, (S)-1-(4-(3,4-dichlorophenyl)piperidino)-3-(2-(5-methyl-1,3,4-oxadiazol-2-yl)benzo(b)furan-4-yloxy)-2-propanol hydrochloride]
DOPAMINE (% of respective basal), individual animal (T30-T1 h): 78.42 % of respective basal and 144.00 % of respective basal and 128.77 % of respective basal and 71.43 % of respective basal and 151.01 % of respective basal and 47.86 % of respective basal and 101.52 % of respective basal | DOPAMINE (% of respective basal), individual animal (T1 h 30-T2 h): 36.00 % of respective basal and 142.72 % of respective basal and 334.21 % of respective basal and 140.61 % of respective basal and 189.68 % of respective basal and 109.22 % of respective basal and 110.24 % of respective basal | DOPAMINE (% of respective basal), individual animal (T1 h-T1 h 30): 48.68 % of respective basal and 33.57 % of respective basal and 218.55 % of respective basal and 176.05 % of respective basal and 99.52 % of respective basal and 198.57 % of respective basal and 106.01 % of respective basal and 103.54 % of respective basal | DOPAMINE (% of respective basal), individual animal (T2 h 30-T3 h): 23.71 % of respective basal and 100.08 % of respective basal and 315.3 % of respective basal and 95.2 % of respective basal and 171.39 % of respective basal and 293.73 % of respective basal and 72.19 % of respective basal and 35.99 % of respective basal | DOPAMINE (% of respective basal), individual animal (T2 h-T2 h 30): 84.44 % of respective basal and 172.82 % of respective basal and 179.35 % of respective basal and 87.73 % of respective basal and 1288.95 % of respective basal and 305.56 % of respective basal and 131.13 % of respective basal and 45.72 % of respective basal | DOPAMINE (% of respective basal), individual animal (T3 h 30-T4 h): 23.36 % of respective basal and 145.75 % of respective basal and 464.25 % of respective basal and 43.13 % of respective basal and 194.11 % of respective basal and 295.73 % of respective basal and 45.38 % of respective basal and 34.94 % of respective basal | DOPAMINE (% of respective basal), individual animal (T3 h-T3 h 30): 40.16 % of respective basal and 117.963 % of respective basal and 93.88 % of respective basal and 47.74 % of respective basal and 225.34 % of respective basal and 586.07 % of respective basal and 48.38 % of respective basal and 40.61 % of respective basal | DOPAMINE (% of respective basal), individual animal (T4 h 30-T5 h): 196.31 % of respective basal and 152.43 % of respective basal and 409.91 % of respective basal and 45.90 % of respective basal and 293.48 % of respective basal and 662.65 % of respective basal and 73.568 % of respective basal and 92.51 % of respective basal | DOPAMINE (% of respective basal), individual animal (T4 h-T4 h 30): 91.54 % of respective basal and 75.24 % of respective basal and 423.55 % of respective basal and 28.53 % of respective basal and 308.40 % of respective basal and 676.86 % of respective basal and 63.428 % of respective basal and 58.94 % of respective basal | DOPAMINE (% of respective basal), individual animal (T5 h 30-T6 h): 107.62 % of respective basal and 109.11 % of respective basal and 218.37 % of respective basal and 42.54 % of respective basal and 135.41 % of respective basal and 709.30 % of respective basal and 42.94 % of respective basal and 140.37 % of respective basal | DOPAMINE (% of respective basal), individual animal (T5 h-T5 h 30): 110.75 % of respective basal and 148.81 % of respective basal and 228.76 % of respective basal and 47.98 % of respective basal and 200.12 % of respective basal and 601.17 % of respective basal and 21.81 % of respective basal and 112.11 % of respective basal | DOPAMINE (% of respective basal), individual animal (T6 h 30-T7 h): 78.29 % of respective basal and 188.44 % of respective basal and 933.712 % of respective basal and 63.21 % of respective basal and 1205.29 % of respective basal and 126.67 % of respective basal | DOPAMINE (% of respective basal), individual animal (T6 h-T6 h 30): 130.81 % of respective basal and 238.5 % of respective basal and 88.84 % of respective basal and 62.29 % of respective basal and 146.28 % of respective basal and 882.60 % of respective basal and 95.56 % of respective basal and 166.52 % of respective basal | Dopamine release, MEAN (T0-T30 min): 128.24 % of respective basal | Dopamine release, MEAN (T30-T1 h): 131.35 % of respective basal | Dopamine release, individual animals (T30-T1 h): 103.18 % of respective basal and 54.05 % of respective basal and 146.65 % of respective basal and 93.66 % of respective basal and 168.96 % of respective basal and 281.64 % of respective basal and 59.20 % of respective basal and 143.48 % of respective basal | Dopamine release, MEAN (T1 h 30-T2 h): 90.06 % of respective basal | Dopamine release, individual animals (T1 h 30-T2 h): 91.90 % of respective basal and 29.89 % of respective basal and 33.64 % of respective basal and 64.84 % of respective basal and 106.30 % of respective basal and 119.82 % of respective basal and 81.21 % of respective basal and 192.86 % of respective basal | Dopamine release, MEAN (T1 h-T1 h 30): 94.40 % of respective basal | Dopamine release, individual animals (T1 h-T1 h 30): 50.19 % of respective basal and 44.28 % of respective basal and 51.46 % of respective basal and 70.10 % of respective basal and 123.34 % of respective basal and 256.96 % of respective basal and 56.09 % of respective basal and 102.79 % of respective basal | Dopamine release, MEAN (T2 h 30-T3 h): 95.29 % of respective basal | Dopamine release, individual animals (T2 h 30-T3 h): 53.62 % of respective basal and 111.85 % of respective basal and 131.64 % of respective basal and 82.81 % of respective basal and 130.53 % of respective basal and 91.04 % of respective basal and 42.56 % of respective basal and 118.24 % of respective basal | Dopamine release, MEAN (T2 h-T2 h 30): 112.22 % of respective basal | Dopamine release, individual animals (T2 h-T2 h 30): 78.18 % of respective basal and 201.28 % of respective basal and 102.58 % of respective basal and 57.76 % of respective basal and 140.27 % of respective basal and 171.47 % of respective basal and 131.71 % of respective basal and 14.48 % of respective basal | Dopamine release, MEAN (T3 h 30-T4 h): 131.87 % of respective basal | Dopamine release, individual animals (T3 h 30-T4 h): 348.64 % of respective basal and 164.63 % of respective basal and 39.78 % of respective basal and 87.76 % of respective basal and 122.97 % of respective basal and 30.76 % of respective basal and 128.55 % of respective basal | Dopamine release, MEAN (T3 h-T3 h 30): 133.65 % of respective basal | Dopamine release, individual animals (T3 h-T3 h 30): 263.92 % of respective basal and 284.14 % of respective basal and 32.71 % of respective basal and 88.53 % of respective basal and 186.05 % of respective basal and 14.29 % of respective basal and 65.93 % of respective basal | Dopamine release, MEAN (T4 h 30-T5 h): 99.61 % of respective basal | Dopamine release, individual animals (T4 h 30-T5 h): 204.04 % of respective basal and 138.52 % of respective basal and 77.42 % of respective basal and 28.77 % of respective basal and 97.45 % of respective basal and 26.06 % of respective basal and 62.98 % of respective basal and 161.60 % of respective basal | Dopamine release, MEAN (T4 h-T4 h 30): 126.41 % of respective basal | Dopamine release, individual animals (T4 h-T4 h 30): 99.34 % of respective basal and 210.06 % of respective basal and 195.26 % of respective basal and 40.10 % of respective basal and 119.18 % of respective basal and 52.10 % of respective basal and 159.91 % of respective basal and 135.30 % of respective basal | Dopamine release, MEAN (T5 h 30-T6 h): 263.98 % of respective basal
